Results: patent US20230023559A1, “ARYLMETHYLENE HETEROCYCLIC COMPOUNDS AS KV1.3 POTASSIUM SHAKER CHANNEL BLOCKERS” (D. E. Shaw Research, LLC, priority 2019, published 2023)

Tests used:
Kv1.3 potassium channel = target: T1, Kv1.3 potassium channel (Homo sapiens, UniProt P22001); assay: Kv1.3 potassium channel blocker activity, automated whole-cell patch clamp (Patchliner); type: cell-based; conditions: CHO-K1 cells stably expressing Kv1.3; whole cell current inhibition; read-out: Kv1.3_IC50
T1 construct: expressed in transfected cells
T1 sequence (P22001 whole entry): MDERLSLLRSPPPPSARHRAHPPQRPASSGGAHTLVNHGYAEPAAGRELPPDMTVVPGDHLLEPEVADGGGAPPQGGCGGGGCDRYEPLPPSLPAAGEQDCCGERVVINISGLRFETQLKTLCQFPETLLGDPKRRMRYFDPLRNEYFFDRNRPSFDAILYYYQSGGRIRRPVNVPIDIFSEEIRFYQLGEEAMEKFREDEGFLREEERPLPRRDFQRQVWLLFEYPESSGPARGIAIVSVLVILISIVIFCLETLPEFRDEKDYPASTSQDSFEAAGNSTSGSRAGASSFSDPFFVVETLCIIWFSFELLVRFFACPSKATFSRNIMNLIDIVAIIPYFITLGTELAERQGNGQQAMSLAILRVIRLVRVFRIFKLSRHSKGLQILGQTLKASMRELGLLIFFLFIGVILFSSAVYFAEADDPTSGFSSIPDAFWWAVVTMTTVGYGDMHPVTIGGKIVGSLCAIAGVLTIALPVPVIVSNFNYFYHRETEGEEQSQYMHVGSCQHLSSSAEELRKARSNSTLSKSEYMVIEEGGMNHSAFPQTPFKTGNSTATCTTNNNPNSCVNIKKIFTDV
Method in brief: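 Peak-current block was recorded on stable Kv1.3 CHO-K1 cells by automated patch clamp, stepping from a −90 mV holding potential to +40 mV for 100 ms at 0.1 Hz with 10 s breaks between trains. Online P/4 leak subtraction, 10 kHz sampling; compound exposure under 10 s per train.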

hERG channel = hERG channel (Homo sapiens, UniProt Q12809); assay: hERG electrophysiology, automated whole-cell patch clamp (Patchliner)
Sequence of hERG channel (Q12809 whole entry): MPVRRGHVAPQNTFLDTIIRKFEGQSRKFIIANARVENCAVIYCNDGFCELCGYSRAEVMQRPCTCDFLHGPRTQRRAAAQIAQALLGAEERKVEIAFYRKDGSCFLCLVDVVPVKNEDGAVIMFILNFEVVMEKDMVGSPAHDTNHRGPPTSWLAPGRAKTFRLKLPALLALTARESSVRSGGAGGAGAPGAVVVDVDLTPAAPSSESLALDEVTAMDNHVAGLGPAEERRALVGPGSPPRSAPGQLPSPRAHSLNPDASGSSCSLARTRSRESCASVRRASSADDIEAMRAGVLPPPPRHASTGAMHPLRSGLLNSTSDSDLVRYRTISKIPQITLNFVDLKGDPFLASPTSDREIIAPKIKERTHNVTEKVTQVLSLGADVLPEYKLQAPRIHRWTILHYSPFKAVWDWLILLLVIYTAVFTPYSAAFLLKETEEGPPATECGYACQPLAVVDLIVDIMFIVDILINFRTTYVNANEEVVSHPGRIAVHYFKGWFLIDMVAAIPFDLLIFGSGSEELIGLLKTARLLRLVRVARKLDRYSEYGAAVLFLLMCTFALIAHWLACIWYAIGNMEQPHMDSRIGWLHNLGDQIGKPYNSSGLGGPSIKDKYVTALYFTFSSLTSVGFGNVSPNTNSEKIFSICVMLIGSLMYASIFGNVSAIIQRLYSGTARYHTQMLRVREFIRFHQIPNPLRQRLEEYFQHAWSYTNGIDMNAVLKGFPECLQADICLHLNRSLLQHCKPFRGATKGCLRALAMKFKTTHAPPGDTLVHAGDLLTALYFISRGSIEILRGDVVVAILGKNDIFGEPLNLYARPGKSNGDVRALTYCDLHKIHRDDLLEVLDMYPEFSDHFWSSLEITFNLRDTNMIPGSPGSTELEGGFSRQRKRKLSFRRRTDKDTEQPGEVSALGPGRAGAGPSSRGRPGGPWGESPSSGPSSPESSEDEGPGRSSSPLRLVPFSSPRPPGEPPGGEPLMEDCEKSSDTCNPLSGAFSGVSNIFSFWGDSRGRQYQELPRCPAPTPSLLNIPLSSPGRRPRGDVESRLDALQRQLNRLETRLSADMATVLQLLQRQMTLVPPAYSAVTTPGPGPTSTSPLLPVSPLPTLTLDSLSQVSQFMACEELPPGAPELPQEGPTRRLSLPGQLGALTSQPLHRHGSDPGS

In the case of `N[C@@H](c1cc(Cl)c(CF)cc1O)C1CCN(C(=O)[C@H](O)CO)CC1` [Compound 226, (2R)-1-[4-[(R)-amino[5-chloro-4-(fluoromethyl)-2-hydroxyphenyl]methyl]piperidin-1-yl]-2,3-dihydroxypropan-1-one Trifluoroacetic Acid], the IC50 (Kv1.3 potassium channel) is reported as < 0.5 µM and the IC50 (hERG channel) is reported as > 30 µM.

In the case of `N[C@@H](c1cc(Cl)c(Cl)cc1O)C1CCN(C(=O)[C@@H]2CCC(=O)NC2)CC1` (single isomer, unassigned; isomer 2) [Compound 222], the IC50 (Kv1.3 potassium channel) is reported as < 0.5 µM and the IC50 (hERG channel) is reported as > 30 µM.

For `N[C@@H](c1cc(Cl)c(Cl)cc1O)C1CCN(S(=O)(=O)[C@@H]2CCNC2)CC1` (single isomer, unassigned; isomer 1) [Compound 112], the IC50 (Kv1.3 potassium channel) was < 0.5 µM and the IC50 (hERG channel) was > 30 µM.

For `CN1CC(C(=O)N2CCC([C@@H](N)c3cc(Cl)c(Cl)cc3O)CC2)NCC1=O` (stereo partly drawn) [Compound 300, 5-[4-[(R)-amino(4,5-dichloro-2-hydroxyphenyl)methyl]piperidine-1-carbonyl]-1-methylpiperazin-2-one Trifluoroacetic Acid], the IC50 (Kv1.3 potassium channel) was < 0.5 µM and the IC50 (hERG channel) was > 30 µM.

`Nc1[nH]ncc1C(=O)N1CCC([C@@H](N)c2cc(Cl)c(Cl)cc2O)CC1` [Compound 211, 2-[(R)-amino[1-(5-amino-1H-pyrazole-4-carbonyl)piperidin-4-yl]methyl]-4,5-dichlorophenol trifluoroacetic acid] was tested, and the IC50 (Kv1.3 potassium channel) was < 0.5 µM and the IC50 (hERG channel) was > 30 µM.

With `N[C@@H](c1cc(Cl)c(Br)cc1O)C1CCN(C(=O)[C@H](O)CO)CC1` [Compound 317, (2R)-1-[4-[(R)-amino(4-bromo-5-chloro-2-hydroxyphenyl)methyl]piperidin-1-yl]-2,3-dihydroxypropan-1-one Trifluoroacetic Acid] the IC50 (Kv1.3 potassium channel) was < 0.5 µM and the IC50 (hERG channel) was > 30 µM.

`CN1CC[C@@H](C(=O)N2CCC([C@@H](N)c3cc(Cl)c(Cl)cc3O)CC2)C1` [Compound 104, 2-[(R)-amino([1-[(3R)-1-methylpyrrolidine-3-carbonyl]piperidin-4-yl])methyl]-4,5-dichlorophenol] was tested, and the IC50 (Kv1.3 potassium channel) was < 0.5 µM and the IC50 (hERG channel) was > 30 µM.

`Cn1cc(C(=O)N2CCC([C@@H](N)c3cc(Cl)c(Cl)cc3O)CC2)ncc1=O` [Compound 298, 5-[4-[(R)-amino(4,5-dichloro-2-hydroxyphenyl)methyl]piperidine-1-carbonyl]-1-methylpyrazin-2-one Trifluoroacetic Acid] was tested, and the IC50 (Kv1.3 potassium channel) was < 0.5 µM and the IC50 (hERG channel) was < 30 µM.

`C[C@H](N)C(=O)N1CCC(C(N)c2cc(Cl)c(Cl)cc2O)CC1` (stereo partly drawn) [Compound 50, (2S)-2-amino-1-(4-(amino(4,5-dichloro-2-hydroxyphenyl)methyl)piperidin-1-yl)propan-1-one trifluoroacetic acid] was tested, and the IC50 (Kv1.3 potassium channel) was < 0.5 µM and the IC50 (hERG channel) was > 30 µM.

With `Cc1cc(O)c([C@H](N)C2CCN(C(=O)c3ccc4nncn4c3)CC2)cc1Cl` [Compound 242, (R)-[1,2,4]triazolo[4,3-a]pyridin-6-yl(4-(amino(5-chloro-2-hydroxy-4-methylphenyl)methyl)piperidin-1-yl)methanone trifluoroacetic acid] the IC50 (Kv1.3 potassium channel) was < 0.5 µM and the IC50 (hERG channel) was > 30 µM.

For `Oc1cc(Cl)c(Cl)cc1[C@@H](O)C1CCNCC1` (single isomer, unassigned) [Compound 6], the IC50 (Kv1.3 potassium channel) was < 10 µM and the IC50 (hERG channel) was > 30 µM.

In the case of `NC(c1cc(Cl)c(Cl)cc1O)C1CNC1` (stereo not shown) [Compound 52, 2-[amino(azetidin-3-yl)methyl]-4,5-dichlorophenol Trifluoroacetic Acid], the IC50 (Kv1.3 potassium channel) is reported as < 10 µM and the IC50 (hERG channel) is reported as > 30 µM.

For `CN1C(=O)CC[C@@H]1C(=O)N1CCC([C@@H](N)c2cc(Cl)c(Cl)cc2O)CC1` [Compound 216, (5R)-5-[4-[(R)-amino(4,5-dichloro-2-hydroxyphenyl)methyl]piperidine-1-carbonyl]-1-methylpyrrolidin-2-one], the IC50 (Kv1.3 potassium channel) was < 10 µM and the IC50 (hERG channel) was > 30 µM.

In the case of `Cn1ccc(N2CCC([C@@H](N)c3cc(Cl)c(Cl)cc3O)CC2)cc1=O` [Compound 297, 4-[4-[(R)-amino(4,5-dichloro-2-hydroxyphenyl)methyl]piperidin-1-yl]-1-methylpyridin-2-one], the IC50 (Kv1.3 potassium channel) is reported as < 0.5 µM and the IC50 (hERG channel) is reported as < 30 µM.
